# Molecular target: T1, cloned human dopamine D3 receptors (Homo sapiens, UniProt P35462)
# T1 construct: expressed in transfected cells; membrane homogenate
# Test: [N-Methyl-3H]Spiroperidol binding to cloned human dopamine D3 receptors
# Settings: read-out: D3 Ki
# Method in brief: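 Stably transfected CHO cells expressing cloned human D3 receptor were used as membranes homogenized in 10% DMSO. Ligand was [N-methyl-3H]spiroperidol displacement.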
# T1 sequence (P35462 whole entry): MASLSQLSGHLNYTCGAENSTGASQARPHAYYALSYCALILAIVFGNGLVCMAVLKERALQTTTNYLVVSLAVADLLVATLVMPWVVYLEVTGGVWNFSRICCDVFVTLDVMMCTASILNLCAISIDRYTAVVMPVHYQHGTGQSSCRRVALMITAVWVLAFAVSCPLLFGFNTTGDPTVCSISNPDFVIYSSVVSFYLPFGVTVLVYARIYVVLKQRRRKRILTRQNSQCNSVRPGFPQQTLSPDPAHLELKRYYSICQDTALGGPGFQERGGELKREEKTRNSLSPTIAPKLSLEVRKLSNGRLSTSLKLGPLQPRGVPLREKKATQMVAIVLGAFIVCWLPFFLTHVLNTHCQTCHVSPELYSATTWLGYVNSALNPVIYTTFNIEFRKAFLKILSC
row,SMILES,Ki [nM]
1,O=C(NCCCn1ccnc1)[C@@H]1C[C@H]1CN1CCN(c2nn(-c3ccc(OC(F)(F)F)cc3)c3ccsc23)CC1 [compound 833333],8.11
2,CC(C)(C)OC(=O)N1CC[C@@H](CNC(=O)[C@@H]2C[C@H]2CN2CCC(c3noc4ccsc34)CC2)C1 [compound 833373],65.5
3,O=C(NC1CCN(Cc2ncc[nH]2)CC1)[C@@H]1C[C@H]1CN1CCC(c2noc3ccsc23)CC1 [compound 833382],2.32
4,Cc1ccc(CN2CCC(NC(=O)[C@@H]3C[C@H]3CN3CCC(c4noc5ccsc45)CC3)CC2)cc1 [compound 833482],0.962
5,O=C(NC1CCN(CC2CC2)CC1)[C@@H]1C[C@H]1CN1CCC(c2noc3ccsc23)CC1 [compound 833483],0.93
6,O=C(NC1CCN(Cc2cccnc2)CC1)[C@@H]1C[C@H]1CN1CCC(c2noc3ccsc23)CC1 [compound 833485],2.99
7,O=C([C@@H]1C[C@H]1CN1CCN(c2csc3cc(C(F)(F)F)ccc23)CC1)N1CCC(n2ccnc2)CC1 [compound 833513],43.1
8,O=C([C@@H]1C[C@H]1CN1CCN(c2csc3cc(C(F)(F)F)ccc23)CC1)N1CCC(CCN2CCCC2)CC1 [compound 833514],0.36
9,O=C(NC1CCN(Cc2ccc(F)cc2F)CC1)[C@@H]1C[C@H]1CN1CCN(c2csc3cc(C(F)(F)F)ccc23)CC1 [compound 833516],21.7
10,COc1ccc2c(c1)c(N1CCN(C[C@@H]3C[C@H]3C(=O)NCCc3ccc(F)cc3)CC1)nn2C [compound 833629],2.69
11,Cn1nc(C2CCN(C[C@@H]3C[C@H]3C(=O)N[C@H]3CC[C@H](C)CC3)CC2)c2ccc(Br)cc21 [compound 833693],18.4
12,C[C@H]1CC[C@H](NC(=O)[C@@H]2C[C@H]2CN2CCC(c3n[nH]c4cc(Br)ccc34)CC2)CC1 [compound 833694],46.9
13,C[C@H]1CC[C@H](NC(=O)[C@@H]2C[C@H]2CN2CCC(c3nn(-c4cccnc4)c4ccccc34)CC2)CC1 [compound 833695],176
14,Cn1nc(C2CCN(C[C@@H]3C[C@H]3C(=O)N[C@H]3CC[C@H](C)CC3)CC2)c2ccc(C(F)(F)F)cc21 [compound 833696],268
15,C[C@H]1CC[C@H](NC(=O)[C@@H]2C[C@H]2CN2CCC(c3nn(C4CCCCC4)c4cc(C(F)(F)F)ccc34)CC2)CC1 [compound 833697],105
16,C[C@H]1CC[C@H](NC(=O)[C@@H]2C[C@H]2CN2CCC(c3nn(-c4ccc(F)cc4)c4cc(C(F)(F)F)ccc34)CC2)CC1 [compound 833698],134
17,C[C@H]1CC[C@H](NC(=O)[C@@H]2C[C@H]2CN2CCN(c3nn(-c4ccc(F)cc4)c4ccccc34)CC2)CC1 [compound 833701],1.28

row,SMILES,Ki [nM]
1,Cn1nc(N2CCN(C[C@@H]3C[C@H]3C(=O)N[C@H]3CC[C@H](C)CC3)CC2)c2ccccc21 [compound 833702],0.495
2,C[C@H]1CC[C@H](NC(=O)[C@@H]2C[C@H]2CN2CCC(c3nsc4cc(Br)ccc34)CC2)CC1 [compound 833703],1.92
3,O=C(NC1CCN(C(=O)Nc2ccc(Cl)cc2)CC1)[C@@H]1C[C@H]1CN1CCC(c2noc3ccsc23)CC1 [compound 833714],4.16
4,COc1ccc2c(c1)c(N1CCN(C[C@@H]3C[C@H]3C(=O)NC3CCN(Cc4ccc(F)cc4)CC3)CC1)nn2C [compound 833835],0.499
5,COc1ccc2c(c1)c(N1CCN(C[C@@H]3C[C@H]3C(=O)NC3CCN(Cc4cccc(Cl)c4)CC3)CC1)nn2C [compound 833836],1.36
6,C[C@H]1CC[C@H](NC(=O)[C@@H]2C[C@H]2CN2CCC(c3n[nH]c4ccc(C(F)(F)F)cc34)CC2)CC1 [compound 833934],0.633
7,C[C@H]1CC[C@H](NC(=O)[C@@H]2C[C@H]2CN2CCC(c3n[nH]c4cc(C(F)(F)F)ccc34)CC2)CC1 [compound 833941],8.98
8,"C[C@H]1CC[C@H](NC(=O)[C@@H]2C[C@H]2CN2CCC(c3noc4ccc(C(F)(F)F)cc34)CC2)CC1 [compound 834012, 2R-[4-(5-Trifluoromethyl-benzo[d]isoxazol-3-yl)-piperidin-1-ylmethyl]-cyclopropane-1R-carboxylic acid trans-(4-methyl-cyclohexyl)-amide]",0.241
9,COc1cccc2c(C3CCN(C[C@@H]4C[C@H]4C(=O)NC4CC5CCC4(C)C5(C)C)CC3)nn(C)c12 (stereo partly shown) [compound 834055],62
10,COc1cccc2c(C3CCN(C[C@@H]4C[C@H]4C(=O)NCCCN4CCCCC4)CC3)nn(C)c12 [compound 834056],93.2
11,COc1cccc2c(C3CCN(C[C@@H]4C[C@H]4C(=O)NCC45CC6CC(CC(C6)C4)C5)CC3)nn(C)c12 [compound 834057],89.4
12,COc1cccc2c(C3CCN(C[C@@H]4C[C@H]4C(=O)NCCCn4ccnc4)CC3)nn(C)c12 [compound 834058],91.4
13,Cc1ccc2c(c1)c(C1CCN(C[C@@H]3C[C@H]3C(=O)N[C@H]3CC[C@H](C)CC3)CC1)nn2C [compound 834059],2.76
14,Cc1ccc2c(c1)c(C1CCN(C[C@@H]3C[C@H]3C(=O)NCCCn3ccnc3)CC1)nn2C [compound 834129],6.75
15,COc1cccc2c(C3CCN(C[C@@H]4C[C@H]4C(=O)NC4CC5CC(C4C)C5(C)C)CC3)nn(C)c12 (stereo partly shown) [compound 834171],65.2
16,O=C(NCCCN1CCOCC1)[C@@H]1C[C@H]1CN1CCN(c2nn(-c3ccc(C(F)(F)F)cc3)c3ccsc23)CC1 [compound 834205],90.5
17,O=C(NCCCN1CCSCC1)[C@@H]1C[C@H]1CN1CCN(c2nn(-c3ccc(C(F)(F)F)cc3)c3ccsc23)CC1 [compound 834206],88.8

# The next lines start with the values.
row,Ki [nM],SMILES
1,3.46,NCCN1CCN(C(=O)[C@@H]2C[C@H]2CN2CCN(c3csc4cc(C(F)(F)F)ccc34)CC2)CC1 [compound 833323]
2,166,COc1c(F)ccc2c(C3CCN(CCC4(C(=O)NCCCN5CCCCC5)CC4)CC3)noc12 [compound 833365]
3,24.2,CC(C)(C)OC(=O)N1CCC(CNC(=O)[C@@H]2C[C@H]2CN2CCC(c3noc4ccsc34)CC2)CC1 [compound 833375]
4,23.7,COc1c(F)ccc2c(C3CCN(CCC4(C(=O)NCCCn5ccnc5)CC4)CC3)noc12 [compound 833378]
5,2.57,O=C(NC1CCNCC1)[C@@H]1C[C@H]1CN1CCC(c2noc3ccsc23)CC1 [compound 833383]
6,5.68,O=C(NC[C@@H]1CCNC1)[C@@H]1C[C@H]1CN1CCC(c2noc3ccsc23)CC1 [compound 833384]
7,36.5,O=C(NCC1CCNCC1)[C@@H]1C[C@H]1CN1CCC(c2noc3ccsc23)CC1 [compound 833386]
8,22.4,O=C(NCCCN1CCCCC1)C1(CCN2CCN(c3csc4cc(C(F)(F)F)ccc34)CC2)CC1 [compound 833475]
9,131,COc1c(F)ccc2c(C3CCN(CCC4(C(=O)N[C@H]5CC[C@H](O)CC5)CC4)CC3)noc12 [compound 833476]
10,41.5,O=C([C@@H]1C[C@H]1CN1CCC(c2noc3ccsc23)CC1)N1CCC(CCN2CCCC2)CC1 [compound 833509]
11,2.17,O=C(NC1CCN(Cc2ccc(F)c(F)c2)CC1)[C@@H]1C[C@H]1CN1CCN(c2csc3cc(C(F)(F)F)ccc23)CC1 [compound 833512]
12,48.3,O=C(NCc1ccc(-c2csnn2)cc1)[C@@H]1C[C@H]1CN1CCN(c2csc3cc(C(F)(F)F)ccc23)CC1 [compound 833515]
13,2.17,COc1ccc2c(c1)c(N1CCN(C[C@@H]3C[C@H]3C(=O)NC3CCN(Cc4ccc(F)c(F)c4)CC3)CC1)nn2C [compound 833626]
14,1.63,COc1ccc2c(c1)c(N1CCN(C[C@@H]3C[C@H]3C(=O)NC3CCN(Cc4ccc(F)cc4F)CC3)CC1)nn2C [compound 833627]
15,4.06,COc1ccc2c(c1)c(N1CCN(C[C@@H]3C[C@H]3C(=O)NC[C@@H]3CCNC3)CC1)nn2C [compound 833632]
16,7.22,O=C(NCCCN1CCCCC1)[C@@H]1C[C@H]1CN1CCC(c2csc3c(C(F)(F)F)cccc23)CC1 [compound 833686]
17,7.2,"C[C@H]1CC[C@H](NC(=O)[C@@H]2C[C@H]2CN2CCN(c3nc4cccc5c4n3CCC5)CC2)CC1 [compound 833699, 2R-[4-(5,6-Dihydro-4H-imidazo[4,5,1-ij]quinolin-2-yl)-piperazin-1-ylmethyl]-1R-cyclopranecarboxylic acid (trans-4-methyl-cyclohexyl)-amide]"
18,3.24,C[C@H]1CC[C@H](NC(=O)[C@@H]2C[C@H]2CN2CCN(c3csc4ncccc34)CC2)CC1 [compound 833700]
19,2.3,COc1ccc2[nH]nc(N3CCN(C[C@@H]4C[C@H]4C(=O)N[C@H]4CC[C@H](C)CC4)CC3)c2c1 [compound 833704]
20,1.38,O=C(NC1CCN(CCc2cccc(Cl)c2)CC1)[C@@H]1C[C@H]1CN1CCC(c2noc3ccsc23)CC1 [compound 833748]
21,0.333,COc1ccc2c(c1)c(N1CCN(C[C@@H]3C[C@H]3C(=O)NC3CCN(Cc4ccc(Cl)cc4)CC3)CC1)nn2C [compound 833834]
22,12.4,O=C(N[C@H]1CC[C@H](O)CC1)[C@@H]1C[C@H]1CN1CCN(c2nn(-c3ccc(OC(F)(F)F)cc3)c3ccsc23)CC1 [compound 833855]
23,1.86,C[C@H]1CC[C@H](NC(=O)[C@@H]2C[C@H]2CN2CCC(c3nn(-c4ccccc4)c4ccsc34)CC2)CC1 [compound 833909]
24,1.24,O=C(NCCCN1CCCCC1)[C@@H]1C[C@H]1CN1CCC(c2csc3cc(C(F)(F)F)ccc23)CC1 [compound 834015]
25,1.62,O=C([C@@H]1C[C@H]1CN1CCC(c2csc3cc(C(F)(F)F)ccc23)CC1)N1CCC(Cn2ccnc2)CC1 [compound 834017]
26,0.837,O=C(NCCCn1ccnc1)[C@@H]1C[C@H]1CN1CCN(c2csc3cc(Cl)ccc23)CC1 [compound 834172]
27,71.4,CC1CCN(CCCNC(=O)[C@@H]2C[C@H]2CN2CCN(c3nn(-c4ccc(OC(F)(F)F)cc4)c4ccsc34)CC2)CC1 [compound 834207]

# — patent US7772252B2, “Heterocyclic substituted carbonyl derivatives and their use as dopamine D3 receptor ligands” (Aventis Pharmaceuticals Inc., priority 2001, dated 2010)
